Key:
[1] = biological target: PTGER2 (EP2) (Homo sapiens (Human), UniProt P43116); experiment: hEP2 b-arrestin assay (PathHunter HEK 293 PTGER2 b-arrestin cells); assay type: cell-based
In short: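 Readout is β-galactosidase complementation luminescence, expressed as percent of DMSO control (duplicates). PathHunter HEK293 EP2/β-arrestin 2 cells, grown 24 h, received compound for 15 min at 37 °C before a 120 min challenge with PGE2 at 5 μM final, followed by 1 h detection at room temperature.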

[2] = biological target: PTRGER4 (EP4) (Homo sapiens (Human), UniProt P35408); experiment: hEP4 b-arrestin assay (PathHunter HEK 293 PTGER4 b-arrestin cells); assay type: cell-based
PTRGER4 (EP4), sequence (P35408 whole entry, looked up, the tested form may be a part): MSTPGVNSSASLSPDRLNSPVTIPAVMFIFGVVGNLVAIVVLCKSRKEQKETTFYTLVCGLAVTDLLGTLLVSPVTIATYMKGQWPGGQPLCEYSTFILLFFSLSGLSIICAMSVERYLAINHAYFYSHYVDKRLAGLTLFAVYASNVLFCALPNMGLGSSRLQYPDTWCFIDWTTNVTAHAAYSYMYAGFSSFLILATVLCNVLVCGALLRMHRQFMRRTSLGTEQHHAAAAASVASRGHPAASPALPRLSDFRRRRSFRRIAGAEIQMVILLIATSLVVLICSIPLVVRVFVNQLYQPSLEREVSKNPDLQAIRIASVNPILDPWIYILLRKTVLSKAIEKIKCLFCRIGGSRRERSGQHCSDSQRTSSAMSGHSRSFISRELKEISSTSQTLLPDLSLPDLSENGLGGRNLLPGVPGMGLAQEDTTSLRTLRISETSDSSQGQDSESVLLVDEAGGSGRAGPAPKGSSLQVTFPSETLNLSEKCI
In short: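 Antagonist mode: compound is given 15 min at 37 °C, then 20 nM (final) PGE2 for 120 min, in HEK293 cells stably expressing EP4 fused to ProLink and β-arrestin 2 fused to EA. Recruitment read as β-gal luminescence after 1 h reagent at room temperature, as percent of DMSO control.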

[3] = antagonistic activity on hEP2, mean where measured multiple times
[4] = antagonistic activity on hEP4, mean where measured multiple times
[5] = hEP2 b-arrestin assay (values without asterisk)
[6] = hEP4 b-arrestin assay (values without asterisk)

PTGER2 (EP2), sequence (P43116 whole entry): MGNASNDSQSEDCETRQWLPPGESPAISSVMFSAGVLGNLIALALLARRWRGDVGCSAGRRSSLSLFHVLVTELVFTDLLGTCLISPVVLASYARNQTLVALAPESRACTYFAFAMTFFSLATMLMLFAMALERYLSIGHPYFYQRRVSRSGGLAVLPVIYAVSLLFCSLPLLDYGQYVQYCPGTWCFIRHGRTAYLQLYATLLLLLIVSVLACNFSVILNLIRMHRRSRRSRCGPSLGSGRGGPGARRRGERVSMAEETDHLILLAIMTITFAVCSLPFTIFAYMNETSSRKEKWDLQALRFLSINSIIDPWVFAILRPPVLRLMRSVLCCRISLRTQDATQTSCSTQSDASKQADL

SMILES	IC50 [1, 3] [µM]	IC50 [2, 4] [µM]	IC50 [1, 5] [µM]	IC50 [2, 6] [µM]
Cc1ccc(F)c2c1cc(C)n2CCNc1cc(-c2ccc(S(=O)(=O)O)cc2)ncn1 [compound 37, 4-{6-[2-(7-Fluoro-2,4-dimethyl-indol-1-yl)-ethylamino]-pyrimidin-4-yl}-benzenesulfonic acid]	0.034	0.436		
CCCCOc1cc(-c2cc(NCCn3c(C#N)cc4c(OC)ccc(F)c43)ncn2)cc(Cl)c1C(=O)O [Example 906, 2-Butoxy-6-chloro-4-{6-[2-(2-cyano-7-fluoro-4-methoxy-indol-1-yl)-ethylamino]-pyrimidin-4-yl}-benzoic acid]			0.03	0.003
COc1ccc(F)c2c1cc(C#N)n2CCNc1cc(-c2ccc(-c3nc(=O)[nH]o3)cc2)ncn1 [Example 831, 7-Fluoro-1-(2-{6-[4-(3-oxo-2,3-dihydro-[1,2,4]-oxadiazol-5-yl)-phenyl]-pyrimidin-4-ylamino}-ethyl)-4-methoxy-1H-indole-2-carbonitrile]			0.019	0.017
COc1ccc(F)c2c1cc(C#N)n2CCNc1cc(-c2c(C)noc2C)ncn1 [Example 993, 1-{2-[6-(3,5-Dimethyl-isoxazol-4-yl)-pyrimidin-4-ylamino]-ethyl}-7-fluoro-4-methoxy-1H-indole-2-carbonitrile]			0.08	0.344
COc1ccc(F)c2c1cc(C#N)n2CCNc1cc(-c2cnc3[nH]ccc3c2)ncn1 [Example 979, 7-Fluoro-4-methoxy-1-{2-[6-(1H-pyrrolo[2,3-b]pyridin-5-yl)-pyrimidin-4-ylamino]-ethyl}-1H-indole-2-carbonitrile]			0.004	0.015
CSc1cc(-c2cc(NCCn3c(C)cc4c(Cl)ccc(Cl)c43)ncn2)ccc1C(=O)O [compound 221]	0.009	0.902		
COc1ccc(F)c2c1cc(C)n2CCNc1cc(-c2ccc(-c3c[nH]cn3)cc2)ncn1 [compound 191, [2-(7-Fluoro-4-methoxy-2-methyl-indol-1-yl)-ethyl]-{6-[4-(1H-imidazol-4-yl)-phenyl]-pyrimidin-4-yl}-amine]	0.013	0.038		
Cc1cc(-c2cc(NCCn3c(C)cc4c(C)ccc(F)c43)ncn2)ccc1C(=O)O [compound 31, 4-{6-[2-(7-Fluoro-2,4-dimethyl-indol-1-yl)-ethylamino]-pyrimidin-4-yl}-2-methyl-benzoic acid]	0.024	0.543		
COc1cccc2c1cc(C)n2CCNc1cc(-c2ccc(C3(C(=O)O)CC3)c(F)c2)ncn1 [compound 386]	0.04	0.559		
Cc1ccc(F)c2c1cc(C)n2CCNc1cc(-c2ccc(-c3ccn[nH]3)cc2)ncn1 [compound 70, [2-(7-Fluoro-2,4-dimethyl-indol-1-yl)-ethyl]-{6-[4-(2H-pyrazol-3-yl)-phenyl]-pyrimidin-4-yl}-amine]	0.033	0.145		

The remaining compounds from weak to strong by IC50 [1, 3], led by results:

IC50 [1, 3] [µM]	IC50 [2, 4] [µM]	IC50 [1, 5] [µM]	IC50 [2, 6] [µM]	SMILES
0.369	0.731			CCOc1cc(-c2cc(NCCn3c(C)cc4c(OC)ccc(F)c43)ncn2)ccc1CNC [compound 358]
0.183	0.468			COc1ccc(F)c2c1cc(C)n2CCNc1cc(-c2ccc(C3(N)CC3)cc2)ncn1 [compound 385]
0.087	0.238			Cc1ccc(F)c2c1cc(C)n2CCNc1cc(-c2ccc(C(=O)O)c(CCC(C)C)c2)ncn1 [compound 369]
0.079	0.183			CCCc1cc(-c2cc(NCCn3c(C)cc4c(OC)c(F)cc(F)c43)ncn2)ccc1C(=O)O [compound 373]
0.05	0.616			Cc1ccc(F)c2c1cc(C)n2CCNc1cc(-c2ccc(N)cc2)ncn1 [compound 1, [6-(4-Amino-phenyl)-pyrimidin-4-yl]-[2-(7-fluoro-2,4-dimethyl-indol-1-yl)-ethyl]-amine]
0.01	0.09			COc1ccc(F)c2c1cc(C)n2CCNc1cc(-c2ccc(CO)c(Cl)c2)ncn1 [compound 27, (2-Chloro-4-{6-[2-(7-fluoro-4-methoxy-2-methyl-indol-1-yl)-ethylamino]-pyrimidin-4-yl}-phenyl)-methanol]

Reference: patent publication US12011444B2, “N-substituted indole derivatives as PGE2 receptor modulators” (Idorsia Pharmaceuticals Ltd, priority 2015, dated 2024)
